Experimental findings from PubChem BioAssay (NCI) are described below.

Some test systems named below: OVCAR-3 ovarian; COLO 205 colon; NCI-H226 lung; IGROV1 ovarian; SF-268 CNS; MOLT-4 leukemia; RPMI-8226 leukemia; T-47D breast; SK-MEL-5 melanoma; SF-539 CNS.
Assay in all cases: NCI anticancer screen, dose series, 48 h

Where “and” joins values, the source holds several entries; their conditions need not be identical. Equal values may be shown once.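 Each compound was tested at five concentrations against cells in 96-well plates for 48 hours. GI50 = concentration required for 50% inhibition of growth. TGI marks complete inhibition of growth.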

Consider `CN(CCC#N)c1ccc(/C=C(\C#N)c2cccc(C(F)(F)F)c2)cc1`, for which the GI50 in the assay with OVCAR-3 ovarian is 4.29 µM; in the assay on COLO 205 colon, 3810 nM; in the assay on NCI-H226 lung it was 6.02 µM; with IGROV1 ovarian, 4.95 µM; in the assay with SF-268 CNS, 6.66 µM; in the assay on MOLT-4 leukemia, 3060 nM. The GI50 with RPMI-8226 leukemia is 3630 nM; with T-47D breast, 2250 nM; with SK-MEL-5 melanoma, 3.23 µM; in the assay with SF-539 CNS it was 4.31 µM. Also, the TGI in the assay on OVCAR-3 ovarian, with COLO 205 colon, in the assay on NCI-H226 lung, with IGROV1 ovarian, in the assay with SF-268 CNS and in the assay on MOLT-4 leukemia was greater than 100 µM throughout. The TGI with RPMI-8226 leukemia was greater than 100 µM; in the assay on T-47D breast, greater than 100 µM; in the assay with SK-MEL-5 melanoma, 30.5 µM; in the assay on SF-539 CNS, greater than 100 µM.

Take `COC1C(O)C(C)OC(OC2C(Oc3cccc4c(O)c5c(=O)oc6ccc(C)c7c(=O)oc(c34)c5c67)OC(C)C3O[C@H](c4ccccc4)OC32)C1O` (stereo partly specified): the TGI stood at 5.31 µM in the assay on OVCAR-3 ovarian; 5.59 µM in the assay on COLO 205 colon; 0.836 µM in the assay with NCI-H226 lung; 3.42 µM with IGROV1 ovarian; 5.83 µM in the assay with SF-268 CNS; 11.5 µM in the assay with MOLT-4 leukemia. In addition, the TGI was 11.1 µM in the assay on RPMI-8226 leukemia, 1.8 µM with SK-MEL-5 melanoma and 2.23 µM in the assay on SF-539 CNS. The GI50 is 258 nM and 204 nM in the assay on COLO 205 colon; 0.186 µM with NCI-H226 lung; 33.4 nM and 23.6 nM in the assay with MOLT-4 leukemia; 115 nM with RPMI-8226 leukemia; 483 nM with T-47D breast; 0.198 µM with SF-539 CNS.

Consider `C=C1C(=O)O[C@H]2[C@H]1CC/C(Cn1cc(CNCCc3c[nH]c4ccc(Cl)cc34)nn1)=C\CC[C@@]1(C)O[C@@H]21`, for which the GI50 in the assay on OVCAR-3 ovarian is 2.44 µM; in the assay with COLO 205 colon, 1960 nM; with NCI-H226 lung, 31.3 µM; in the assay with IGROV1 ovarian, 2.44 µM; in the assay on SF-268 CNS, 12.5 µM; with MOLT-4 leukemia, 2540 nM. Also, the GI50 is 2360 nM in the assay with RPMI-8226 leukemia, 3240 nM with T-47D breast, 17 µM in the assay with SK-MEL-5 melanoma and 4.23 µM with SF-539 CNS. The TGI in the assay with OVCAR-3 ovarian was 6.5 µM; with COLO 205 colon it was 3.75 µM; in the assay with NCI-H226 lung, greater than 100 µM; with IGROV1 ovarian, 9.59 µM; in the assay on SF-268 CNS, 33.6 µM; in the assay with MOLT-4 leukemia, 6.56 µM. Besides, the TGI amounted to 5.55 µM in the assay with RPMI-8226 leukemia, 13.8 µM in the assay with T-47D breast, 34.9 µM with SK-MEL-5 melanoma and 14.6 µM with SF-539 CNS.

`CCN(CC)C(=O)CC1=C(C)/C(=C/c2[nH]c(-c3ccc[nH]3)cc2OC)N=C1C`: the GI50 in the assay with OVCAR-3 ovarian was 0.509 µM; with COLO 205 colon it was 296 nM; in the assay with NCI-H226 lung, 0.531 µM; in the assay on IGROV1 ovarian it was 0.43 µM; in the assay on SF-268 CNS, 0.633 µM; in the assay on MOLT-4 leukemia it was 357 nM. For the same molecule, the GI50 in the assay on RPMI-8226 leukemia is 304 nM; in the assay with T-47D breast, 272 nM; in the assay with SF-539 CNS it was 0.498 µM. Also, the TGI was 14.1 µM with OVCAR-3 ovarian; 10.1 µM with COLO 205 colon; 6.11 µM in the assay on NCI-H226 lung; 15.6 µM in the assay with IGROV1 ovarian; 21.3 µM in the assay on SF-268 CNS; 39.4 µM with MOLT-4 leukemia. Further, the TGI with RPMI-8226 leukemia was found to be 2.28 µM; with T-47D breast, 13.1 µM; in the assay on SF-539 CNS, 12.2 µM.

Consider `CC(C)(C)[Si](C)(C)OCC1CCC(n2cnc3c(=O)[nH]cnc32)O1` (stereo unspecified), for which the TGI in the assay with OVCAR-3 ovarian, in the assay with COLO 205 colon, in the assay on NCI-H226 lung, with IGROV1 ovarian, in the assay on SF-268 CNS and in the assay with MOLT-4 leukemia was greater than 100 µM in each case. Moreover, the TGI in the assay on RPMI-8226 leukemia, in the assay on T-47D breast, in the assay on SK-MEL-5 melanoma and with SF-539 CNS was greater than 100 µM each time.

Regarding `Cc1c(C)c2c(c(C)c1NC(=O)/C=C\C(=O)O)CCC(C)(CCCC(C)CCCC(C)CCCC(C)C)O2` (stereo unspecified), the GI50 in the assay on OVCAR-3 ovarian is 1.61 µM; in the assay with COLO 205 colon, 1750 nM; in the assay on NCI-H226 lung, 1.96 µM; in the assay on IGROV1 ovarian, 1.94 µM; with SF-268 CNS, 1.67 µM; in the assay on MOLT-4 leukemia, 2060 nM. In addition, the GI50 in the assay with RPMI-8226 leukemia was 2170 nM; in the assay with T-47D breast, 2020 nM; in the assay with SK-MEL-5 melanoma, 1.73 µM; with SF-539 CNS, 1.68 µM. The TGI in the assay on OVCAR-3 ovarian was 2.97 µM; in the assay on COLO 205 colon, 3.54 µM; with NCI-H226 lung it was 4.38 µM; with IGROV1 ovarian, 4.88 µM; in the assay with SF-268 CNS it was 3.08 µM; in the assay with MOLT-4 leukemia it was 7.19 µM. Besides, the TGI worked out at 13.8 µM in the assay on RPMI-8226 leukemia, 4.78 µM in the assay on T-47D breast, 3.15 µM in the assay with SK-MEL-5 melanoma and 3.11 µM in the assay with SF-539 CNS.

As for `COc1cc([N+](=O)[O-])c(S(=O)(=O)O)cc1NS(=O)(=O)c1ccc(C)cc1`, the TGI in the assay with OVCAR-3 ovarian, with COLO 205 colon, in the assay on NCI-H226 lung, with IGROV1 ovarian, in the assay on SF-268 CNS and with MOLT-4 leukemia was greater than 100 µM each time. In addition, the TGI with RPMI-8226 leukemia, with T-47D breast, with SK-MEL-5 melanoma and in the assay on SF-539 CNS was greater than 100 µM throughout.

`CCNC(C)(C)C(SS)c1ccc(Br)cc1` (stereo unspecified): the TGI with OVCAR-3 ovarian is greater than 100 µM; in the assay with COLO 205 colon it was greater than 100 µM; with NCI-H226 lung it was greater than 100 µM; with IGROV1 ovarian, greater than 100 µM; with SF-268 CNS, greater than 100 µM; in the assay with MOLT-4 leukemia, 69.3 µM. The TGI in the assay with RPMI-8226 leukemia is 76.1 µM; with T-47D breast, 93.6 µM; in the assay on SK-MEL-5 melanoma, greater than 100 µM; in the assay with SF-539 CNS, greater than 100 µM.

On to `O=C(COc1ccc(/C=C2\Oc3ccccc3C2=O)cc1)Nc1nccs1`, for which the GI50 was 36.1 µM in the assay with OVCAR-3 ovarian; greater than 100000 nM in the assay with COLO 205 colon; 60.3 µM with NCI-H226 lung; 36.8 µM in the assay on SF-268 CNS; 3310 nM with MOLT-4 leukemia; 4120 nM in the assay with RPMI-8226 leukemia. In addition, the GI50 is 75400 nM in the assay with T-47D breast, 64.4 µM with SK-MEL-5 melanoma and 32.5 µM in the assay on SF-539 CNS. Moreover, the TGI in the assay with OVCAR-3 ovarian is greater than 100 µM; in the assay on COLO 205 colon, greater than 100 µM; in the assay with NCI-H226 lung, greater than 100 µM; in the assay with SF-268 CNS, greater than 100 µM; with MOLT-4 leukemia, 19.1 µM; with RPMI-8226 leukemia, greater than 100 µM. For the same molecule, the TGI with T-47D breast, with SK-MEL-5 melanoma and in the assay with SF-539 CNS was greater than 100 µM each time.

Take `COc1cc(N2CCN(C(C)C)CC2)ccc1Nc1nc(Nc2cccc3ncccc23)c2cc[nH]c2n1`: the GI50 with OVCAR-3 ovarian was 4.75 µM; in the assay with COLO 205 colon it was 1380 nM; in the assay on NCI-H226 lung, 4.82 µM; in the assay on IGROV1 ovarian, 12.1 µM; in the assay with SF-268 CNS it was 5.21 µM; in the assay with MOLT-4 leukemia, 7510 nM. The GI50 with RPMI-8226 leukemia was 5680 nM; in the assay on T-47D breast, 3800 nM; with SK-MEL-5 melanoma, 3.41 µM; in the assay on SF-539 CNS, 3.94 µM. In addition, the TGI in the assay on OVCAR-3 ovarian is 10.6 µM; with COLO 205 colon, 5.96 µM; in the assay on NCI-H226 lung, greater than 25 µM; in the assay on IGROV1 ovarian, greater than 25 µM; with SF-268 CNS, 15.4 µM; in the assay on MOLT-4 leukemia, greater than 23.2 µM. The TGI turned out to be 17.8 µM with RPMI-8226 leukemia, 13.6 µM in the assay with T-47D breast, 6.66 µM with SK-MEL-5 melanoma and 8.15 µM with SF-539 CNS.

Take `Cc1csc(/C=N/NC(=O)c2nnn(-c3ccnc4c(C(F)(F)F)cccc34)c2C)c1`: the GI50 in the assay with OVCAR-3 ovarian is 90.3 µM; with COLO 205 colon, 34200 nM; with NCI-H226 lung it was 79 µM; in the assay with IGROV1 ovarian, greater than 100 µM; with SF-268 CNS, greater than 100 µM; with MOLT-4 leukemia, 48800 nM. Besides, the GI50 in the assay with RPMI-8226 leukemia is 33700 nM; in the assay on T-47D breast, 29500 nM; in the assay with SK-MEL-5 melanoma, 27.2 µM; with SF-539 CNS it was greater than 100 µM. The TGI with OVCAR-3 ovarian, in the assay with COLO 205 colon, with NCI-H226 lung, in the assay with IGROV1 ovarian, in the assay on SF-268 CNS and in the assay on MOLT-4 leukemia was greater than 100 µM each time. The TGI in the assay on RPMI-8226 leukemia, in the assay with T-47D breast, in the assay on SK-MEL-5 melanoma and in the assay on SF-539 CNS was greater than 100 µM throughout.

For `COc1ccc(C[n+]2c3ccccc3n3c4ccc(N)cc4ccc32)c(OC)c1OC`, the GI50 is 1.69 µM in the assay on OVCAR-3 ovarian; 1900 nM in the assay on COLO 205 colon; 12.8 µM in the assay on NCI-H226 lung; 4.58 µM with IGROV1 ovarian; 2.42 µM in the assay on SF-268 CNS; 3140 nM in the assay with MOLT-4 leukemia. Besides, the GI50 was 512 nM in the assay on RPMI-8226 leukemia, 1420 nM with T-47D breast, 1.44 µM in the assay with SK-MEL-5 melanoma and 2.89 µM in the assay on SF-539 CNS. For the same molecule, the TGI with OVCAR-3 ovarian turned out to be 8.97 µM; in the assay on COLO 205 colon, 5.65 µM; in the assay with NCI-H226 lung it was 60.8 µM; in the assay with IGROV1 ovarian, 40 µM; in the assay with SF-268 CNS, 15.5 µM; in the assay with MOLT-4 leukemia it was 35.2 µM. Further, the TGI in the assay with RPMI-8226 leukemia amounted to 7.64 µM; in the assay with T-47D breast, 7.03 µM; in the assay on SK-MEL-5 melanoma, 7.27 µM; with SF-539 CNS, 15.2 µM.
